Laboratory results taken from ChEMBL document CHEMBL2417377, “Hit-to-lead optimization and kinase selectivity of imidazo[1,2-a]quinoxalin-4-amine derived JNK1 inhibitors” (Bioorg Med Chem Lett, 2013).

Experiments:
Conditions in all cases: PC-3
[1] = biological target: Ephrin type-A receptor 2 (Homo sapiens) (UniProt P29317); test: Inhibition of EphA2 in human PC3 cell lysates at 10 uM using desthiobiotin-tagged ATP probe AX9989 followed by trypsinization by LC/MS analysis
[2] = biological target: Calcium/calmodulin-dependent protein kinase type II subunit gamma (Homo sapiens) (UniProt Q13555); test: Inhibition of CaMK2gamma in human PC3 cell lysates at 10 uM using desthiobiotin-tagged ATP probe AX9989 followed by trypsinization by LC/MS analysis
[3] = biological target: T1, Eukaryotic translation initiation factor 2-alpha kinase 3 (Homo sapiens) (UniProt Q9NZJ5); test: Inhibition of PEK in human PC3 cell lysates at 10 uM using desthiobiotin-tagged ATP probe AX9989 followed by trypsinization by LC/MS analysis
T1 sequence (whole entry): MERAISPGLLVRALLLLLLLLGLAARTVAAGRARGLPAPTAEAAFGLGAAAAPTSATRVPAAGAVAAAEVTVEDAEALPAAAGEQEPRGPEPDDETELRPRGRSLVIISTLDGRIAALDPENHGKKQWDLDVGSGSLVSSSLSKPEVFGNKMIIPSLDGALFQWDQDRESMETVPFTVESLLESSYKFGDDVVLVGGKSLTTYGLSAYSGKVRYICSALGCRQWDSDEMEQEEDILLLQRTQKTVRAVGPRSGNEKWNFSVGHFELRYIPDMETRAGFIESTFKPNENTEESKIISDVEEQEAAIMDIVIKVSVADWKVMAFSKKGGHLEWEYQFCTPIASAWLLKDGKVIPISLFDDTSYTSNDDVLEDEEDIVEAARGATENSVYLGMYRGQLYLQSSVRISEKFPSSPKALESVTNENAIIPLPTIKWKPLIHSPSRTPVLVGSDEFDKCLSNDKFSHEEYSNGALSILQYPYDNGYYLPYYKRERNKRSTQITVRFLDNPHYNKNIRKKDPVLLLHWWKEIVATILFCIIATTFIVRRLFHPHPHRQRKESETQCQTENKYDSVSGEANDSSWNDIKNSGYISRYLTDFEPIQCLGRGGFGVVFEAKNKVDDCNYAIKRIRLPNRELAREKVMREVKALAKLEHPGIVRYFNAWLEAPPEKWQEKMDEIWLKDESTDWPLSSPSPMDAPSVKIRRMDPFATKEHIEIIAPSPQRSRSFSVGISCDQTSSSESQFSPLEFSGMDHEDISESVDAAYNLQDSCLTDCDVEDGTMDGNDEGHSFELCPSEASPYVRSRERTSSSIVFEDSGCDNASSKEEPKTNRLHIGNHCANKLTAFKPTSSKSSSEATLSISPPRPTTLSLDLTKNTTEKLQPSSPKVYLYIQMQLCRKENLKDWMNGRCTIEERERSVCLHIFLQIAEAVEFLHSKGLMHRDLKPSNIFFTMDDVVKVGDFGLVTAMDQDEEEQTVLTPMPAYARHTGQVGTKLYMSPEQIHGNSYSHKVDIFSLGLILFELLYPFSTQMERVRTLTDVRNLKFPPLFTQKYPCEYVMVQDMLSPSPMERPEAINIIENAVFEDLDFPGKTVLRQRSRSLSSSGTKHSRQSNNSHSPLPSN

[4] = biological target: T2, Serine/threonine-protein kinase TAO3 (Homo sapiens) (UniProt Q9H2K8); test: Inhibition of TAO3 in human PC3 cell lysates at 10 uM using desthiobiotin-tagged ATP probe AX9989 followed by trypsinization by LC/MS analysis
T2 sequence (whole entry): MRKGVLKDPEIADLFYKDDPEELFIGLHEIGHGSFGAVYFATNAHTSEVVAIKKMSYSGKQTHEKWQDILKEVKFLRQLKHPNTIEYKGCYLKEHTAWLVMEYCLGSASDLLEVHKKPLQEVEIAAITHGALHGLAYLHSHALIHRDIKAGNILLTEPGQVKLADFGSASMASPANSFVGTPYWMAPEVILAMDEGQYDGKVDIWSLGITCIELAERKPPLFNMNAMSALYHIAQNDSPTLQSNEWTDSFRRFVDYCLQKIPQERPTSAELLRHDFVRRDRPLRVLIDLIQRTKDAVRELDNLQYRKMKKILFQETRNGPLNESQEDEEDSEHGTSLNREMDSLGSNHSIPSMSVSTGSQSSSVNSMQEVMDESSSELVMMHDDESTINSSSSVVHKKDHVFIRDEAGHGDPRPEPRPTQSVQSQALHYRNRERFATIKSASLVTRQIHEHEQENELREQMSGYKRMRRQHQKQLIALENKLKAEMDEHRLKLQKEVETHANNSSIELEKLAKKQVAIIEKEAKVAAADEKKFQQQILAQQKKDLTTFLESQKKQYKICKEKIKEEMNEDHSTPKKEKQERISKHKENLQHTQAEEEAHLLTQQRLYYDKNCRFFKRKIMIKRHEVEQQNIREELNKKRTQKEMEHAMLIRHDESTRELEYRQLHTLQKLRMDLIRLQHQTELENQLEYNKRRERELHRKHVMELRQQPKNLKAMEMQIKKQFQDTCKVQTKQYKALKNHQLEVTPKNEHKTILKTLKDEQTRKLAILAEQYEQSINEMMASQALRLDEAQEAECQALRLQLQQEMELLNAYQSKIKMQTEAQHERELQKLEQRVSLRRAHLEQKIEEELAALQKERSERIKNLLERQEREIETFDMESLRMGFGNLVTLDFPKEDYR

[5] = biological target: Ribosomal protein S6 kinase alpha-3 (Homo sapiens) (UniProt P51812); test: Inhibition of RSK2 domain2 in human PC3 cell lysates at 10 uM using desthiobiotin-tagged ATP probe AX9989 followed by trypsinization by LC/MS analysis
[6] = biological target: T3, Phosphorylase b kinase gamma catalytic chain, liver/testis isoform (Homo sapiens) (UniProt P15735); test: Inhibition of PHKgamma2 in human PC3 cell lysates at 10 uM using desthiobiotin-tagged ATP probe AX9989 followed by trypsinization by LC/MS analysis
T3 sequence (whole entry): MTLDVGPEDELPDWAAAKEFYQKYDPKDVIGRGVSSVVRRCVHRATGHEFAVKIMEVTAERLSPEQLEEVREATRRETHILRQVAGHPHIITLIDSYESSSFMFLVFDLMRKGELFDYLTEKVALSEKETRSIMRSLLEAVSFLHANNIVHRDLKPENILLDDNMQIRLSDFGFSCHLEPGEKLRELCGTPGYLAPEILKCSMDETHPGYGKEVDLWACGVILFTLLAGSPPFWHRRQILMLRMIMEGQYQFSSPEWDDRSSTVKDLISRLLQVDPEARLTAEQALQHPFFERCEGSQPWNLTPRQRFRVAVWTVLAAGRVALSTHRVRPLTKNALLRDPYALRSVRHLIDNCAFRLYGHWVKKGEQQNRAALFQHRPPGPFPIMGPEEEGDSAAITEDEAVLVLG

Sequence of Ephrin type-A receptor 2 (Homo sapiens) (P29317 whole entry): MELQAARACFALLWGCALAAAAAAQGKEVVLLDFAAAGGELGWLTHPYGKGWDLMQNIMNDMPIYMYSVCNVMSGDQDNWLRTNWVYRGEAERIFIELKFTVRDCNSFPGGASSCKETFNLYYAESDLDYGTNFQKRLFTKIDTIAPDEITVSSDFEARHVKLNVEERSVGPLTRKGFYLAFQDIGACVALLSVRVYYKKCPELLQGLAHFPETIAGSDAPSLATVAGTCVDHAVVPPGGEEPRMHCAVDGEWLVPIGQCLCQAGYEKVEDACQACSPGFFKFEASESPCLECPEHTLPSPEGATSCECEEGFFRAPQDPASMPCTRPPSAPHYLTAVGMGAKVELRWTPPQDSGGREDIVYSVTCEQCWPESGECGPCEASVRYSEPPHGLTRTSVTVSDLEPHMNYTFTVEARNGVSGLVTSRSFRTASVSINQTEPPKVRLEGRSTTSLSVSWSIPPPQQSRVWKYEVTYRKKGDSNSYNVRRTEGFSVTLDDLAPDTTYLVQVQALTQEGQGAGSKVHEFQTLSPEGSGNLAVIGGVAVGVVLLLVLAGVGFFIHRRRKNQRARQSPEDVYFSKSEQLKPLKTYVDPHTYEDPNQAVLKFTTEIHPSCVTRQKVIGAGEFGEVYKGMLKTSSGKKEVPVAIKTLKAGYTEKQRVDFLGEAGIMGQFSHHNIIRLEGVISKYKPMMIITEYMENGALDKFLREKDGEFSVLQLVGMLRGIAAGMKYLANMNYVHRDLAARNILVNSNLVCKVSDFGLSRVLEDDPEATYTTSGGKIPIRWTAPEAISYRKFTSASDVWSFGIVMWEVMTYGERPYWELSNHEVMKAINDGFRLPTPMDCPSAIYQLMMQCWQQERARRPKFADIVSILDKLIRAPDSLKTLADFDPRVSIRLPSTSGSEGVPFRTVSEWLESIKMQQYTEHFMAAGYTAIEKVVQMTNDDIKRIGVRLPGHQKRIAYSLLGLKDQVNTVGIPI
Sequence of Ribosomal protein S6 kinase alpha-3 (Homo sapiens) (P51812 whole entry, the tested form may be a part, canonical isoform): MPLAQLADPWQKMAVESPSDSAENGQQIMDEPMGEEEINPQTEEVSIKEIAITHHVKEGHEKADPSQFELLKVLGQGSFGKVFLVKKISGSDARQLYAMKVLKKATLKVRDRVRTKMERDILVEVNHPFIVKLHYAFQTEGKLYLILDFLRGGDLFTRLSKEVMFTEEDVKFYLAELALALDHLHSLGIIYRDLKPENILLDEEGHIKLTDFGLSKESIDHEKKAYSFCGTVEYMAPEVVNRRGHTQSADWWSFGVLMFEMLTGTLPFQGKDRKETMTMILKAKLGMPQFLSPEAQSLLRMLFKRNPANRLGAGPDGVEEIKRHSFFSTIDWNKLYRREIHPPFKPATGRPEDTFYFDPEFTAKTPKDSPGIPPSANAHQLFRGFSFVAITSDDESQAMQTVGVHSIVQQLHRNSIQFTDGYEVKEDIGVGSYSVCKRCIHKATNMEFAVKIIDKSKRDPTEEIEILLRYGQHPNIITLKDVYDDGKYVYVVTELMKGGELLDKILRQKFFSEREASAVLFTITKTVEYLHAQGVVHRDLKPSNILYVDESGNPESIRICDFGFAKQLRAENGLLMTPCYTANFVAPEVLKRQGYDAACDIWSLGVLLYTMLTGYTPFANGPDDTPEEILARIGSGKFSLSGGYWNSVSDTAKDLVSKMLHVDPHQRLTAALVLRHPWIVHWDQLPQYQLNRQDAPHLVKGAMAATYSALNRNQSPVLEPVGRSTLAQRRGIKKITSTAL
Sequence of Calcium/calmodulin-dependent protein kinase type II subunit gamma (Homo sapiens) (Q13555 whole entry): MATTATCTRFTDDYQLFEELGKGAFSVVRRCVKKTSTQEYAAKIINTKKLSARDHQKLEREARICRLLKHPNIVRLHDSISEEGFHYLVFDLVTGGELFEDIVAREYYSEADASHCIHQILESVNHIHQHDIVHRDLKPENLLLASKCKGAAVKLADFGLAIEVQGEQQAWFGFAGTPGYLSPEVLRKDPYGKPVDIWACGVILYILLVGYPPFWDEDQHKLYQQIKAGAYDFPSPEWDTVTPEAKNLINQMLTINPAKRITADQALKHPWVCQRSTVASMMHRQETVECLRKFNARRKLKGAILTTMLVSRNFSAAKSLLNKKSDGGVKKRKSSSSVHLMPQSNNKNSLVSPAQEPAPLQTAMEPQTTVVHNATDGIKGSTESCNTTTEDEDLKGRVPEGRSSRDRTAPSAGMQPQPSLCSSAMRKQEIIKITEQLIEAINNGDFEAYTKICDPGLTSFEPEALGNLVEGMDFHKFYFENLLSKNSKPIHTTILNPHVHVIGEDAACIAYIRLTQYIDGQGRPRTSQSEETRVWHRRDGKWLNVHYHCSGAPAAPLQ

| SMILES | inhibition [1] | inhibition [2] | inhibition [3] | inhibition [4] | inhibition [5] | inhibition [6] |
| --- | --- | --- | --- | --- | --- | --- |
| NC(=O)c1ccc2nc(N[C@H]3CC[C@H](O)CC3)c3nccn3c2c1 | < 35% | < 35% | < 35% | < 35% | < 35% | < 35% |
| O=C(NC1(c2ccccc2)CC1)c1ccc2nc(N[C@H]3CC[C@H](O)CC3)c3nccn3c2c1 | < 35% | < 35% | < 35% | < 35% | < 35% | < 35% |
| O=C(NC1(Cc2ccc(F)cc2)CC1)c1ccc2nc(N[C@H]3CC[C@H](O)CC3)c3nccn3c2c1 | < 35% | < 35% | < 35% | < 35% | < 35% | < 35% |
| O=C(NC1(c2ccccc2)CCC1)c1ccc2nc(N[C@H]3CC[C@H](O)CC3)c3nccn3c2c1 | < 35% | < 35% | < 35% | < 35% | < 35% | < 35% |
| O=C(NC1(c2ccc(F)cc2)CC1)c1ccc2nc(N[C@H]3CC[C@H](O)CC3)c3nccn3c2c1 | < 35% | < 35% | < 35% | < 35% | < 35% | < 35% |
| O=C(O)c1ccc2nc(N[C@H]3CC[C@H](O)CC3)c3nccn3c2c1 | < 35% | < 35% | 37.5% | < 35% | < 35% | < 35% |

Now from value to compound:

| inhibition [1] | inhibition [2] | inhibition [3] | inhibition [4] | inhibition [5] | inhibition [6] | SMILES |
| --- | --- | --- | --- | --- | --- | --- |
| < 35% | < 35% | < 35% | < 35% | < 35% | < 35% | O=C(N[C@H](CO)c1ccccc1)c1ccc2nc(N[C@H]3CC[C@H](O)CC3)c3nccn3c2c1 |
| < 35% | < 35% | < 35% | < 35% | < 35% | < 35% | CC(C)(NC(=O)c1ccc2nc(N[C@H]3CC[C@H](O)CC3)c3nccn3c2c1)c1ccccc1 |
| < 35% | < 35% | < 35% | < 35% | < 35% | < 35% | CCC[C@@H](NC(=O)c1ccc2nc(N[C@H]3CC[C@H](O)CC3)c3nccn3c2c1)c1ccccc1 |
| < 35% | < 35% | 38.4% | < 35% | < 35% | < 35% | C[C@@H](NC(=O)c1ccc2nc(N[C@H]3CC[C@H](O)CC3)c3nccn3c2c1)c1ccccc1 |
| < 35% | 48.7% | < 35% | < 35% | < 35% | < 35% | CC[C@@H](NC(=O)c1ccc2nc(N[C@H]3CC[C@H](O)CC3)c3nccn3c2c1)c1ccccc1 |
| < 35% | < 35% | < 35% | < 35% | < 35% | < 35% | C[C@H](NC(=O)c1ccc2nc(N[C@H]3CC[C@H](O)CC3)c3nccn3c2c1)c1ccccc1 |
